Values after ≈ are worked out from the molar mass of the structure shown. Values joined by “and” are separate entries in the source; they are usually repeats but may differ in a detail not shown here. Equal entries are not always repeated.
Legend:
Type in all cases: cell-based
PBMC = test: Toxicity in PBMC (Cell Titer 96); details: for % CC: O.D. relative to cell control; for TOXICITY VALUES (Cell Titer 96 - O.D. @ 490/650 nm), SAMPLE: individual samples
Text: These compounds were further screened for activity in HIV-1-infected peripheral blood mononuclear cells (PBMC). The data (experiments were repeated, so duplicates are shown) is summarized in the tables below, and also in FIGS. 4A-B and 5A-B.

HIV-1 92/HT/599 = HIV-1 92/HT/599 replication in human PBMCs, reverse transcriptase in culture supernatants (RLU); details: for RLU (Relative Light Units), SAMPLE: individual samples, listed as Trana 154
Experimental: (§1) In these studies, PHA-P stimulated PBMCs from three donors were pooled together and re-suspended in fresh tissue culture medium at 1×10^6 cells/mL and plated in the interior wells of a 96 well round bottom microplate at 50µl/well. A 100µL volume of 9 concentrations of compound serially diluted were transferred to the round-bottom 96 well plate containing the cells in triplicate. Fifty microliters (µL) of HIV-1 at a pre-determined dilution was added. Each plate contained cell control wells and virus control wells in parallel with the experimental wells. After 7 days in culture, efficacy was evaluated by measuring the reverse transcriptase in the culture supernatants and the cells were stained with the tetrazolium dye XTT to evaluate cytotoxicity.

HUMAN PBMCS = test: Cytotoxicity in human PBMCs (XTT); details: for TOXICITY VALUES (XTT - O.D. @ 450/650 nm), SAMPLE: individual samples, listed as Trana 154
Experimental: as §1

c1ccc(N/N=C2/CCc3ccccc3N2)cc1 [HIT #154]
% CC (PBMC; 31.6 μM): 116.3% | TOXICITY VALUES (Cell Titer 96 - O.D. @ 490/650 nm), SAMPLE (PBMC; 31.6 μM): 0.898 O.D. and 1.018 O.D. and 0.970 O.D. | TOXICITY VALUES (Cell Titer 96 - O.D. @ 490/650 nm), MEAN (PBMC; 100 μM): 0.769 O.D. | % CC (PBMC; 100 μM): 92.9% | TOXICITY VALUES (Cell Titer 96 - O.D. @ 490/650 nm), SAMPLE (PBMC; 100 μM): 0.757 O.D. and 0.854 O.D. and 0.697 O.D. | TC 90% (PBMC; PBMC, Cell Titer 96): >100 µM | TC 95% (PBMC; PBMC, Cell Titer 96): >100 µM | % Virus Control (HIV-1 92/HT/599; 0.32 μg/ml): 84.00% | Antiviral Test Values Mean RLU (HIV-1 92/HT/599; 0.32 μg/ml): 16201.3 RLU | RLU (Relative Light Units), SAMPLE (HIV-1 92/HT/599; 0.32 μg/ml): 27495.0 RLU and 14218.0 RLU and 6891.0 RLU | % Virus Control (HIV-1 92/HT/599; 1 μg/ml): 78.40% | Antiviral Test Values Mean RLU (HIV-1 92/HT/599; 1 μg/ml): 15121.3 RLU | RLU (Relative Light Units), SAMPLE (HIV-1 92/HT/599; 1 μg/ml): 10410.0 RLU and 21914.0 RLU and 13031.0 RLU | % Virus Control (HIV-1 92/HT/599; 3.16 μg/ml): 41.46% | Antiviral Test Values Mean RLU (HIV-1 92/HT/599; 3.16 μg/ml): 7996.7 RLU | RLU (Relative Light Units), SAMPLE (HIV-1 92/HT/599; 3.16 μg/ml): 11407.0 RLU and 10934.0 RLU and 1649.0 RLU | % Virus Control (HIV-1 92/HT/599; 9.99 μg/ml): 48.92% | Antiviral Test Values Mean RLU (HIV-1 92/HT/599; 9.99 μg/ml): 9436.3 RLU | RLU (Relative Light Units), SAMPLE (HIV-1 92/HT/599; 9.99 μg/ml): 13230.0 RLU and 13148.0 RLU and 1933.0 RLU | % Virus Control (HIV-1 92/HT/599; 31.6 μg/ml): 35.47% | Antiviral Test Values Mean RLU (HIV-1 92/HT/599; 31.6 μg/ml): 6841.0 RLU | RLU (Relative Light Units), SAMPLE (HIV-1 92/HT/599; 31.6 μg/ml): 5800.0 RLU and 7652.0 RLU and 7462.0 RLU | % Virus Control (HIV-1 92/HT/599; 100 μg/ml): 6.75% | Antiviral Test Values Mean RLU (HIV-1 92/HT/599; 100 μg/ml): 1301.3 RLU | RLU (Relative Light Units), SAMPLE (HIV-1 92/HT/599; 100 μg/ml): 1021.0 RLU and 744.0 RLU and 2139.0 RLU | EC 25% (HIV-1 92/HT/599; HIV-1 92/HT/599, human PBMCs): 1.11 µg/mL (≈ 4.68 µM) | EC 95% (HIV-1 92/HT/599; HIV-1 92/HT/599, human PBMCs): >100 µg/mL | EC50 (HIV-1 92/HT/599; Human immunodeficiency virus 1, PBMC, read-out: EC50 (EC 50%), HIV-1 92/HT/599, human PBMCs): 2.42 µg/mL (≈ 10.2 µM) | Therapeutic Index (TI) 25% (HIV-1 92/HT/599; TC/EC at 25%): 20.09 | Therapeutic Index (TI) 50% (HIV-1 92/HT/599; TC/EC at 50%): 33.76 | Therapeutic Index (TI) 95% (HIV-1 92/HT/599; TC/EC at 95%): 1 | % Cell Viability (HUMAN PBMCS; 0.32 μg/ml): 92.64% | Cytotoxicity Test Values Mean OD @ 450/650 nm (HUMAN PBMCS; 0.32 μg/ml): 1.038 OD | TOXICITY VALUES (XTT - O.D. @ 450/650 nm), SAMPLE (HUMAN PBMCS; 0.32 μg/ml): 0.9729 O.D. and 1.0510 O.D. and 1.0896 O.D. | % Cell Viability (HUMAN PBMCS; 1 μg/ml): 87.74% | Cytotoxicity Test Values Mean OD @ 450/650 nm (HUMAN PBMCS; 1 μg/ml): 0.983 OD | TOXICITY VALUES (XTT - O.D. @ 450/650 nm), SAMPLE (HUMAN PBMCS; 1 μg/ml): 0.9683 O.D. and 1.0187 O.D. and 0.9670 O.D. | % Cell Viability (HUMAN PBMCS; 3.16 μg/ml): 88.82% | Cytotoxicity Test Values Mean OD @ 450/650 nm (HUMAN PBMCS; 3.16 μg/ml): 0.995 OD | TOXICITY VALUES (XTT - O.D. @ 450/650 nm), SAMPLE (HUMAN PBMCS; 3.16 μg/ml): 0.9103 O.D. and 1.0889 O.D. and 0.9881 O.D. | % Cell Viability (HUMAN PBMCS; 9.99 μg/ml): 99.35% | Cytotoxicity Test Values Mean OD @ 450/650 nm (HUMAN PBMCS; 9.99 μg/ml): 1.113 OD | TOXICITY VALUES (XTT - O.D. @ 450/650 nm), SAMPLE (HUMAN PBMCS; 9.99 μg/ml): 1.1959 O.D. and 0.9242 O.D. and 1.2189 O.D. | % Cell Viability (HUMAN PBMCS; 31.6 μg/ml): 64.38% | Cytotoxicity Test Values Mean OD @ 450/650 nm (HUMAN PBMCS; 31.6 μg/ml): 0.721 OD | TOXICITY VALUES (XTT - O.D. @ 450/650 nm), SAMPLE (HUMAN PBMCS; 31.6 μg/ml): 0.6103 O.D. and 0.6005 O.D. and 0.7620 O.D. | % Cell Viability (HUMAN PBMCS; 100 μg/ml): 46.94% | Cytotoxicity Test Values Mean OD @ 450/650 nm (HUMAN PBMCS; 100 μg/ml): 0.526 OD | TOXICITY VALUES (XTT - O.D. @ 450/650 nm), SAMPLE (HUMAN PBMCS; 100 μg/ml): 0.4574 O.D. and 0.5742 O.D. and 0.5461 O.D. | TC 25% (HUMAN PBMCS; human PBMCs, XTT): 22.3 µg/mL (≈ 94 µM) | TC50 (TC 50%) (HUMAN PBMCS; human PBMCs, XTT): 81.7 µg/mL (≈ 344 µM) | TC 95% (HUMAN PBMCS; human PBMCs, XTT): >100 µg/mL
